Measured values: publication PMC10838102 (Journal of Experimental Pharmacology, 2024)

Key:
[1] = concurrent administration of 2 g of curcumin and 5 mg of piperine; cited from earlier work
[2] = with piperine; cited from earlier work
[3] = tested on: Caco-2 cell monolayer; assay: Caco-2 cell monolayer permeability assay with LC-MS/MS analysis; conditions: 2-hour permeability experiment

| Papp classification [3] | SMILES | increase in curcumin's bioavailability [1] | increase of bioavailability of curcumin [2] [folds] |
| --- | --- | --- | --- |
|  | COc1cc(/C=C/C(=O)CC(=O)/C=C/c2ccc(O)c(OC)c2)ccc1O [curcumin] | approximately a twofold increase | 20 |
| high | CC(C)NCC(O)COc1cccc2ccccc12 (stereo not drawn) [propranolol] |  |  |
